Measured values reported in the supplement of paper PMC10307832.

Tests used:
Assay in all cases: relative viability (nuclei count vs DMSO), 5 days (fraction); higher = more cells survive
[1] = compound: Cc1ccc(NC(=O)c2ccc(CN3CCN(C)CC3)cc2)cc1Nc1nccc(-c2cccnc2)n1 [Imatinib] + CS(=O)(=O)N1CCN(Cc2cc3nc(-c4cccc5[nH]ncc45)nc(N4CCOCC4)c3s2)CC1 [Pictilisib] (partner 1 µM)
How it was run: (§1)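 Relative viability equals treated-well nuclei counts divided by vehicle-well nuclei counts. Counts came from 4× images of lung cancer cell lines grown in 1536-well plates for 5 days after pin-tool dosing on the day after seeding. Dosing used one drug alone or a fixed anchor-drug dose plus five library-drug doses (not always all listed) in √10 steps, and values are medians of duplicate plates.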

[2] = compound: Cc1ccc(NC(=O)c2ccc(CN3CCN(C)CC3)cc2)cc1Nc1nccc(-c2cccnc2)n1 [Imatinib] + CC(C)C[C@H](NC(=O)[C@H](Cc1ccccc1)NC(=O)c1cnccn1)B(O)O [Bortezomib] (partner 0.002 µM)
How it was run: as §1

[3] = compound: Cc1ccc(NC(=O)c2ccc(CN3CCN(C)CC3)cc2)cc1Nc1nccc(-c2cccnc2)n1 [Imatinib] + CS(=O)(=O)CCNCc1ccc(-c2ccc3ncnc(Nc4ccc(OCc5cccc(F)c5)c(Cl)c4)c3c2)o1 [Lapatinib] (partner 2 µM)
How it was run: as §1

[4] = compound: Cc1ccc(NC(=O)c2ccc(CN3CCN(C)CC3)cc2)cc1Nc1nccc(-c2cccnc2)n1 [Imatinib] + Nc1nc2[nH]cc(CCc3ccc(C(=O)N[C@@H](CCC(=O)O)C(=O)O)cc3)c2c(=O)[nH]1 [Pemetrexed] (partner 0.2 µM)
How it was run: as §1

| Cell Line | relative viability ([1]; first compound 0.02 µM) | relative viability ([1]; first compound 0.6325 µM) | relative viability ([1]; first compound 2 µM) | relative viability ([2]; first compound 0.02 µM) | relative viability ([2]; first compound 0.2 µM) | relative viability ([2]; first compound 0.6325 µM) | relative viability ([2]; first compound 2 µM) | relative viability ([3]; first compound 0.02 µM) | relative viability ([3]; first compound 0.2 µM) | relative viability ([3]; first compound 0.6325 µM) | relative viability ([3]; first compound 2 µM) | relative viability ([4]; first compound 0.02 µM) | relative viability ([4]; first compound 0.6325 µM) | relative viability ([4]; first compound 2 µM) | relative viability ([1]; first compound 0.06325 µM) | relative viability ([1]; first compound 0.2 µM) | relative viability ([2]; first compound 0.06325 µM) | relative viability ([3]; first compound 0.06325 µM) | relative viability ([4]; first compound 0.06325 µM) | relative viability ([4]; first compound 0.2 µM) |
| --- | --- | --- | --- | --- | --- | --- | --- | --- | --- | --- | --- | --- | --- | --- | --- | --- | --- | --- | --- | --- |
| PC-3 [JPC-3] | 0.715 | 0.774 | 0.653 | 0.887 | 0.832 | 0.864 | 0.711 | 0.503 | 0.48 | 0.462 | 0.431 | 1.28 | 1.16 | 1.07 | – | – | – | – | – | – |
| NCI-H2228 | 0.525 | 0.534 | 0.52 | 1.13 | 1.14 | 1.01 | 0.895 | 1.31 | 1.03 | 1.01 | 0.843 | 0.344 | 0.345 | 0.33 | 0.178 | 0.427 | 0.782 | 1.02 | 0.389 | 0.303 |
| NCI-H1703 | – | 0.256 | 0.235 | 0.289 | 0.138 | 0.214 | 0.186 | 1.01 | 0.439 | 0.276 | 0.281 | – | – | – | 0.268 | 0.219 | 0.29 | 1.1 | – | – |
| HCC-366 | 0.131 | 0.144 | 0.223 | 1.46 | 1.5 | 1.07 | 0.929 | 1.3 | 1.33 | 1.03 | 1.04 | 0.178 | 0.173 | 0.128 | 0.119 | 0.19 | – | – | 0.197 | 0.189 |
| NCI-H1355 | 0.432 | 0.468 | 0.536 | 1.26 | 1.31 | 1.13 | 1.18 | 1.04 | 1.1 | 1.02 | 0.99 | 1.14 | 1.08 | 1.01 | – | 0.434 | – | – | – | 1.11 |
| NCI-H1563 | 0.662 | 0.605 | 0.589 | 0.885 | 0.889 | 0.809 | 0.86 | 1.01 | 0.98 | 0.869 | – | 0.861 | 0.772 | 0.631 | 0.537 | 0.634 | 0.789 | 0.699 | 0.678 | 0.787 |
| HARA | 0.42 | 0.363 | 0.339 | 0.952 | 1.5 | 1.09 | 1.1 | 0.629 | 0.83 | 0.748 | 0.781 | 0.256 | 0.286 | 0.227 | 0.406 | 0.389 | 1.25 | 0.996 | 0.235 | 0.23 |
| H3255 | 0.493 | 0.447 | 0.426 | 0.796 | 0.729 | 0.699 | 0.7 | 0.234 | 0.268 | 0.266 | 0.23 | 0.536 | 0.565 | 0.573 | 0.488 | 0.507 | – | – | 0.499 | 0.554 |
| EMC-BAC-2 | 0.513 | 0.536 | 0.582 | 1.11 | 1.21 | 1.16 | 1.07 | 0.937 | 0.833 | 0.972 | 0.873 | 0.443 | 0.507 | 0.424 | 0.505 | 0.614 | 1.11 | 0.702 | 0.483 | 0.447 |
